In US20260041683A1, “Compounds with Anti-Acinetobacter Baumannii Activity” (University of Kentucky Research Foundation, priority 2022, published 2026):
Converted amounts (≈) assume the structure as drawn.

How the values were obtained:
Experiment in all cases: MIC determination
Assay type in all cases: cell-based
[1] = test system: Ab strain #309 (CDC and FDA AR Bank); conditions: Acinetobacter baumannii; Ab AR Bank #309
Description: (§1) All bacterial strains listed above were stored at −80° C. All strains were streaked on Mueller-Hinton (MH) plates and allowed to grow at 37° C. overnight. Enough colonies were scraped from the plate and suspended in MH broth with vortexing to reach an attenuance at 600 nm (OD600) of ˜0.5. The resulting culture was diluted 1:1000 and added to the prepared serially doubly diluted compound solutions in 96-well plates. For M. smegmatis, a 1:100 dilution of the bacteria was done in MH. All MIC values were determined using 96-well plates with low evaporation seals at least in duplicate. For each row, one well was reserved for sterile control (which consisted of 200 μL of MH medium) and another well was reserved for growth control (which consisted of 100 μL of MH medium seeded with 100 μL of bacterial culture).
(§2) Then all 46 compounds were tested against a broad panel of all 41 Ab strains from the CDC and FDA Antibiotic Resistance (AR) Isolate Bank (Table 2; data shown for 2 representative compounds), which were all highly multidrug-resistant strains, including those resistant to colistin. […] The activity of the monohydrazides was not dependent on the extent (number of resistance mutations) or severity (antibiotic MIC) of resistance. All conclusions made from Table 1 remained valid for all compounds against these 41 additional Ab strains. […] This mechanism of action will be elucidated in the proposed studies.

[2] = test system: Ab strain #294 (CDC and FDA AR Bank); conditions: Acinetobacter baumannii; Ab AR Bank #294
Description: as §1, §2

[3] = test system: Ab strain #293 (CDC and FDA AR Bank); conditions: Acinetobacter baumannii; Ab AR Bank #293
Description: as §1, §2

[4] = test system: Ab strain #312 (CDC and FDA AR Bank); conditions: Acinetobacter baumannii; Ab AR Bank #312
Description: as §1, §2

[5] = test system: Ab strain #313 (CDC and FDA AR Bank); conditions: Acinetobacter baumannii; Ab AR Bank #313
Description: as §1, §2

[6] = test system: Ab strain #298 (CDC and FDA AR Bank); conditions: Acinetobacter baumannii; Ab AR Bank #298
Description: as §1, §2

[7] = test system: Ab strain #275 (CDC and FDA AR Bank); conditions: Acinetobacter baumannii; Ab AR Bank #275
Description: as §1, §2

[8] = test system: Ab strain #300 (CDC and FDA AR Bank); conditions: Acinetobacter baumannii; Ab AR Bank #300
Description: as §1, §2

[9] = test system: Ab strain #273 (CDC and FDA AR Bank); conditions: Acinetobacter baumannii; Ab AR Bank #273
Description: as §1, §2

[10] = test system: Ab strain #276 (CDC and FDA AR Bank); conditions: Acinetobacter baumannii; Ab AR Bank #276
Description: as §1, §2

[11] = test system: Ab strain #286 (CDC and FDA AR Bank); conditions: Acinetobacter baumannii; Ab AR Bank #286
Description: as §1, §2

[12] = test system: Ab strain #301 (CDC and FDA AR Bank); conditions: Acinetobacter baumannii; Ab AR Bank #301
Description: as §1, §2

[13] = test system: Ab strain #282 (CDC and FDA AR Bank); conditions: Acinetobacter baumannii; Ab AR Bank #282
Description: as §1, §2

[14] = test system: Ab strain #311 (CDC and FDA AR Bank); conditions: Acinetobacter baumannii; Ab AR Bank #311
Description: as §1, §2

[15] = test system: Ab strain #288 (CDC and FDA AR Bank); conditions: Acinetobacter baumannii; Ab AR Bank #288
Description: as §1, §2

[16] = test system: Ab strain #303 (CDC and FDA AR Bank); conditions: Acinetobacter baumannii; Ab AR Bank #303
Description: as §1, §2

[17] = test system: Ab strain #289 (CDC and FDA AR Bank); conditions: Acinetobacter baumannii; Ab AR Bank #289
Description: as §1, §2

[18] = test system: Ab strain #281 (CDC and FDA AR Bank); conditions: Acinetobacter baumannii; Ab AR Bank #281
Description: as §1, §2

[19] = test system: Ab strain #296 (CDC and FDA AR Bank); conditions: Acinetobacter baumannii; Ab AR Bank #296
Description: as §1, §2

[20] = test system: Ab strain #280 (CDC and FDA AR Bank); conditions: Acinetobacter baumannii; Ab AR Bank #280
Description: as §1, §2

[21] = test system: Ab strain #305 (CDC and FDA AR Bank); conditions: Acinetobacter baumannii; Ab AR Bank #305
Description: as §1, §2

[22] = test system: Ab strain #292 (CDC and FDA AR Bank); conditions: Acinetobacter baumannii; Ab AR Bank #292
Description: as §1, §2

[23] = test system: Ab strain #307 (CDC and FDA AR Bank); conditions: Acinetobacter baumannii; Ab AR Bank #307
Description: as §1, §2

[24] = test system: Ab strain #287 (CDC and FDA AR Bank); conditions: Acinetobacter baumannii; Ab AR Bank #287
Description: as §1, §2

[25] = test system: Ab strain #285 (CDC and FDA AR Bank); conditions: Acinetobacter baumannii; Ab AR Bank #285
Description: as §1, §2

[26] = test system: Ab strain #295 (CDC and FDA AR Bank); conditions: Acinetobacter baumannii; Ab AR Bank #295
Description: as §1, §2

[27] = test system: Ab strain #302 (CDC and FDA AR Bank); conditions: Acinetobacter baumannii; Ab AR Bank #302
Description: as §1, §2

Row | SMILES | MIC [1] [µg/mL] | MIC [2] [µg/mL] | MIC [3] [µg/mL] | MIC [4] [µg/mL] | MIC [5] [µg/mL] | MIC [6] [µg/mL] | MIC [7] [µg/mL] | MIC [8] [µg/mL] | MIC [9] [µg/mL] | MIC [10] [µg/mL] | MIC [11] [µg/mL] | MIC [12] [µg/mL] | MIC [13] [µg/mL] | MIC [14] [µg/mL] | MIC [15] [µg/mL] | MIC [16] [µg/mL] | MIC [17] [µg/mL] | MIC [18] [µg/mL] | MIC [19] [µg/mL] | MIC [20] [µg/mL] | further results
1 | O=C(NNc1cccc(F)c1)c1cnccn1 [Compound 9a] | 0.5 (≈ 2.15 µM) | ≤ 0.13 | 0.25 (≈ 1.08 µM) | 0.5 (≈ 2.15 µM) | 0.25 (≈ 1.08 µM) | 0.5 (≈ 2.15 µM) | 0.5 (≈ 2.15 µM) | 0.25 (≈ 1.08 µM) | 1 (≈ 4.31 µM) | 0.5 (≈ 2.15 µM) | 1 (≈ 4.31 µM) | 0.25 (≈ 1.08 µM) | 1 (≈ 4.31 µM) | 0.5 (≈ 2.15 µM) | 1 (≈ 4.31 µM) | 0.25 (≈ 1.08 µM) | 0.5 (≈ 2.15 µM) | 0.5 (≈ 2.15 µM) | ≤ 0.13 | 1 (≈ 4.31 µM) | MIC [21]: 0.5 µg/mL (≈ 2.15 µM); MIC [22]: 0.25 µg/mL (≈ 1.08 µM); MIC [23]: 0.5 µg/mL (≈ 2.15 µM); MIC [24]: 0.5 µg/mL (≈ 2.15 µM); MIC [25]: 0.5 µg/mL (≈ 2.15 µM); MIC [26]: ≤ 0.13 µg/mL; MIC [27]: 0.25 µg/mL (≈ 1.08 µM)
2 | O=C(NNc1ccc(Cl)cc1)c1ccc(F)cn1 [Compound 3e] | 0.25 (≈ 0.941 µM) | 0.25 (≈ 0.941 µM) | 0.13 (≈ 0.489 µM) | 0.5 (≈ 1.88 µM) | 0.25 (≈ 0.941 µM) | 0.25 (≈ 0.941 µM) | 0.25 (≈ 0.941 µM) | 0.25 (≈ 0.941 µM) | 0.5 (≈ 1.88 µM) | 0.03 (≈ 0.113 µM) | 0.06 (≈ 0.226 µM) | 0.25 (≈ 0.941 µM) | 0.25 (≈ 0.941 µM) | 0.5 (≈ 1.88 µM) | 0.25 (≈ 0.941 µM) | 0.13 (≈ 0.489 µM) | 0.25 (≈ 0.941 µM) | 0.5 (≈ 1.88 µM) | 0.06 (≈ 0.226 µM) | 0.5 (≈ 1.88 µM) | MIC [21]: 0.5 µg/mL (≈ 1.88 µM); MIC [22]: 0.25 µg/mL (≈ 0.941 µM); MIC [23]: 0.5 µg/mL (≈ 1.88 µM); MIC [24]: 0.13 µg/mL (≈ 0.489 µM); MIC [25]: 0.13 µg/mL (≈ 0.489 µM); MIC [26]: 0.06 µg/mL (≈ 0.226 µM); MIC [27]: 0.13 µg/mL (≈ 0.489 µM)
